Data: US7022484B2, “Methods for treating neuropathological states and neurogenic inflammatory states and methods for identifying compounds useful therein” (Board of Regents, The University of Texas System, priority 2000, dated 2006)

How the values were obtained:
[1] = tested on: TNFα; experiment: TNFα release by ELISA from SW982 synovial cells treated with NMDA and ACPD; type: cell-based, human; settings: 24 hours, NMDA (5 mM) and ACPD (5 mM), K252a (100 nM)
Experimental: The cultured cell lines used in these studies were the human neuroblastoma clonal line, SHSY5Y, and the human synovial sarcoma clonal line, SW982, both available through the American Tissue Type Culture Collection (item number CRL 2266 and HTB-93, respectively). Cells were grown in Dulbecco's Modification of Eagles Medium (DMEM) without L-glutamine, with 4.5 grams/Liter glucose, and with 10% bovine fetal serum in a tissue culture incubator at 37° C. in a gaseous mixture of O2/CO2. Cells were routinely split as necessary to maintain proper cell density. Cells were removed from plates by adding TRYPSIN/EDTA in Hank's Balanced Salt solution. After cell counts, approximately 10,000 cells were plated per well in a culture dish. For experiments, the cells were plated into 35 mm Petri dishes or 6- or 24-well plates as needed.
For detection of released Tumor Necrosis Factor alpha (TNFα) and some western blot experiments, cells were exposed to the two glutamate agonists NMDA (5 mM) and ACPD (5 mM), in the presence or absence of the tyrosine kinase inhibitors Genistein […] or K252a (100 nM). […]
The release of the inflammatory mediator and initiator of inflammatory cascades, TNFα was measured by ELISA using a commercially available kit (R&D Quantikine, Catalog Number DTA50) specific for human TNFα. […]

[2] = tested on: rat arthritis model; experiment: Paw withdrawal latency (PWL) to radiant heat in rat kaolin/carrageenan knee joint inflammation model; type: in vivo; settings: for development of secondary hyperalgesia: spinal microdialysis pre-treatment, 4 hours after induction of arthritis
Experimental: All studies followed the guidelines of the Institute Animal Care and Use Committee, in accordance with the guidelines of the National Institutes of Health. All animals were hosted in a room with a constant ambient temperature of 22° C. and 12 hour light/dark cycle with free access to food and water. Eighty-five Sprague-Dawley rats (250–300 grams) total were used in experiments conducted for biochemical, behavioral, and immunocytochemistry studies. […] On Day 2 baseline behavioral testing was followed by infusion of agents for 1.5 hours (pretreatment) prior to induction of knee joint inflammation under brief anesthesia. Behavioral testing was repeated 4 hours after induction of joint inflammation. Anesthetized animals were either transcardially perfused with aldehydes for immunohistochemical studies or fresh, frozen tissues collected for biochemical studies.
A microdialysis fiber was implanted into the spinal dorsal horn of anesthetized rats (sodium pentobarbital, 50 mg/kg) one day prior to the induction of arthritis according to the procedure of Skilling et al. (J. Neurochem., 51:127–132 (1988)), as described in Sluka et al. (Neurosci. Lett., 145:141–144 (1992)). Briefly, a small midline incision was made in the skin over the T12 vertebral level. The vertebrae were cleared of muscle and two 1 millimeter (mm) holes were drilled in the lateral aspect of both sides of the T12 vertebrae to expose the L4 spinal segment. A microdialysis fiber ([…], 45,000 MW cut-off, Hospal, AN69, Hospal Industrie, Meyzieu, France), was passed transversely across the deep dorsal horn and stabilized with dental cement. The microdialysis fiber was then passed through the holes in the vertebrae and transversely through the dorsal horn of the spinal cord. A 2 mm section of the microdialysis fiber lies in the dorsal horn at the level of L3–4 segment. The tubing was coated with epoxy except for a permeable portion passing through the spinal grey matter. The microdialysis fiber was connected to PE20 tubing (Becton Dickinson and Company, San Mateo, Calif.) which was tunneled under the skin to the nape of the neck. Alternatively as a systemic control for drug administration, the microdialysis fiber was implanted only in the subcutaneous tissue over the back muscle and tunneled to the neck. Artificial cerebrospinal fluid (aCSF) was made as described by Sorkin et al. (J. Neurosci. Methods, 23, 131–138 (1988)) and was infused (5 microliters/minute) for 1.5 hours and then the tube was heat-sealed for use on the following day.
Dose response curves were generated for Genistein with animals receiving Genistein spinally at concentration of 0.2 mM (n=3), 0.5 mM (n=3), 1 mM (n=9), and 2 mM (n=3). Animals received Lavendustin A or B spinally at concentrations of 0.1 mM (n=3), 0.5 mM (n=3), and 1 mM (n=5) as a positive and negative control for Genistein. […] Daidzein was tested at a dose of 1 mM (n=3). […] Eight additional animals received the vehicle, 50% DMSO in aCSF, as a control.
(§1) An acute inflammatory response restricted to the knee joint can be induced by the injection of 3% kaolin and 3% carrageenan (in sterile saline; 0.1 ml; pH 7.4) into the joint cavity while the animal is briefly anesthetized with sodium methohexital (Brevital, 60 mg/kg, i.p.). Kaolin and carrageenan were obtained from Fisher Scientific, St. Louis, Mo. The knee joint is flexed manually until the rat awakes (approximately 5–10 minutes). In this arthritis model in the awake rat, localized joint swelling, as well as limping and guarding of the limb, are well developed at 4 hours (Sluka et al., Pain, 59, 95–100 (1994)) when behavioral testing begins.
Fifty-five rats were used for behavioral studies. Four hours after induction of the arthritis, the joint is swollen and increased withdrawal responses to radiant heat and spontaneous guarding of the limb were noted. The increased responsiveness to noxious stimuli indicates the presence of secondary hyperalgesia. […]

[3] = tested on: NMDA currents; settings: patch clamp studies; cited from earlier work
[4] = tested on: rat arthritis model; experiment: Knee joint circumference and joint temperature in kaolin/carrageenan knee joint inflammation model; type: in vivo; settings: 4 hours after kaolin/carrageenan; spinal pre-treatment
Experimental: as §1
Knee joint circumference is measured in centimeters (cm) with a flexible tape measure around the center of the knee joint while the joint is held in extension as done with patients in the clinical setting as an indication of increases in joint volume. The knee joints of anesthetized rats are measured before (baseline) and four hours following injection of the knee joint with kaolin and carrageenan.
Temperature readings were documented numerically with a temperature probe after the rat is reanesthetized with sodium pentobarbital (50 mg/kg, i.p.) just prior to perfusion with aldehydes for histological preservation. Comparative temperature differences were made between the baseline temperature and the temperature four hours after induction of inflammation.

[5] = tested on: NMDA receptor subunit NR1; experiment: Immunocytochemical localization of NMDA receptor subunit NR1 in spinal cord of arthritic rats; type: in vivo, rat; settings: 4 hours, Genistein 1 mM spinal pre-treatment, cycloheximide 100 mg/kg i.p.
Excerpt: Cycloheximide (100 milligrams per kilogram (mg/kg) intraperitoneal (i.p.) was used in some studies to determine if the alterations observed for the NMDA NR1 receptor subunit could be attributed to newly synthesized NR1 protein.
Twenty-four rats in 3 separate groups were used for immunocytochemical studies. One group of rat (n=8) was a naive control. The other 2 groups (n=16) of rats received surgical placement of the microdialysis fiber placement. On the day after microdialysis fiber placement, the animals were treated spinally with either Genistein (1 mM) or vehicle (50% DMSO in aCSF) for 1.5 hours (n=8 for each group). Then the left knee joint of all sixteen rats was injected with 0.1 ml of kaolin and carrageenan.
Animals were anesthetized and transcardially perfused with a brief warm saline rinse followed by fixative solution (4% paraformaldehyde in 0.1 M phosphate buffer, pH 7.4). The tissues were soaked overnight in 30% buffered sucrose and cut at 30 microns on a sliding microtome. For light microscopy, the tissues from animals (n=8) were permeabilized with a 50% buffered ethanol treatment. Tissue sections were then stained immunocytochemically for glutamate receptor subunit NR1 and phospho-NR1. Primary antibodies to be used for staining include anti-NMDA NR1 NMDA receptor (0.5–1 milligrams per milliliter (mg/ml)) purchased from Chemlcon Inc. (Pittsburgh, Pa.). Other neurotransmitter and receptor primary antibodies against NMDA NR2C, mGluR1, and mGluR5 were used as stain specificity controls. The primary antibodies were diluted in phosphate buffered saline (PBS, pH 7.6) with 0.1% BSA for overnight incubation on the spinal cord tissues. After washing in PBS, the tissue sections were incubated in the appropriate secondary antibody, either anti-mouse or anti-rabbit IgG (1:100, 30 minutes) and in avidin-biotin complex (ABC, 1:100, Vector Laboratories, Burlingame, Calif.). Sections were reacted with diaminobenzidine (DAB) solution (1.5 mg/ml) as the chromogen and peroxide (0.5 mg/ml) to produce a dense reaction product. To further intensify the reaction product particularly for visualization of nuclear rings, some tissues were reacted with colloidal gold conjugated IgG and reacted with a silver chloride solution to produce an intense black reaction product (Takizawa et al., J. Histochemistry & Cytochemistry, 42, 1615–1623 (1994)).
Immunocytochemical controls included sections processed in the absence of the primary or secondary antibody or ABC reagents. The specificity of the transmitter antibodies was confirmed by appearance of a single band by Western blot. In addition to use of the C-terminus NR1 antibody from ChemIcon, an antibody directed to the N-terminus of the NR1 protein was used as control (1 mg/ml; BD PharMingen, San Diego, Calif.). […]

COC(=O)[C@@]1(O)C[C@H]2O[C@]1(C)n1c3ccccc3c3c4c(c5c6ccccc6n2c5c31)C(=O)NC4 [K252a]
NMDA/ACPD-promoted release of TNFα [1]: completely abolished

O=C(O)c1cc(N(Cc2ccccc2O)Cc2ccccc2O)ccc1O [Lavendustin B]
development of secondary hyperalgesia [2]: ineffective in altering the nociceptive outcome of knee joint inflammation

O=C(O)c1cc(N(Cc2ccccc2O)Cc2cc(O)ccc2O)ccc1O [Lavendustin A]
effect on NMDA currents [3]: reversibly depresses NMDA currents | joint circumference [4]: expected increases | joint temperature [4]: expected increases | most effective dose in pre-treatment animals ([2]; concentration inside the microdialysis fiber, spinal administration): 0.5 mM | PWL decrease induced by knee joint inflammation ([2]; spinal microdialysis pre-treatment 1.5 hours, PWL to radiant heat 4 hours after kaolin/carrageenan): significantly (p<0.05 versus 4 hours vehicle group) attenuated the PWL decreases | development of secondary hyperalgesia [2]: significantly abrogated the development of secondary hyperalgesia

C[C@@H]1C[C@@H]([C@H](O)CC2CC(=O)NC(=O)C2)C(=O)[C@@H](C)C1 [Cycloheximide]
staining for NR1 in spinal cord [5]: did not totally reduce the staining to baseline | staining for NR1 in spinal cord ([5]; listed as cycloheximide): reduced the increase in NR1 staining by about half
